{"source": "patent US20120269725A1", "about": "“TARGETED RADIOLABELED COMPOUNDS AND THEIR USE FOR THE TREATMENT AND DIAGNOSIS OF CANCER” (priority 2009, published 2012)", "key": {"[1]": {"system": "U-87 human glioblastoma cells", "assay": "Clonogenic assay in U-87 cells", "format": "cell-based", "settings": "24 h treatment at 0.5 to 5 μCi/mL; 100 and 500 cells/flask; monitored 7 weeks", "protocol": "U-87 cells were plated for 24 h before treatment and then treated for 24 h with concentrations of 6b fast and 6b slow ranging from 0.5 μCi/mL to 5 μCi/mL (18.5 to 185 kBq/mL). Cells were harvested, washed, and their numbers counted using a Cellometer® cell counter. Cells were diluted in fresh medium. Cells from each concentration of 6b fast and 6b slow were plated in three T25 flasks at two densities, 100 cells/flask and 500 cells/flask. Control cells were sham-treated with PBS and processed in a manner identical to cells treated with 6b. Cells were periodically examined and fresh medium was added every 5-7 days. Three weeks after plating, media was removed from the control flasks, cells were washed with 5 mL ice-cold PBS, followed by 5 mL PBS/methanol (1:1; v/v), and fixed in 5 mL methanol for 10 minutes. The methanol was discarded and flasks were left open to dry for a few hours. Crystal violet (5 mL; 0.25% in 1:1 PBS/methanol) was added to each flask to stain the cells. After approximately 10 min, the dye was removed and flasks were rinsed first with tap water followed by distilled water and were left to dry. […] This finding indicates the extraordinarily effective killing of U-87 cells by 6b."}, "[2]": {"system": "subcutaneous LS174T tumors (human colorectal adenocarcinoma)", "assay": "Biodistribution, clearance and planar imaging in athymic mice bearing subcutaneous LS174T xenografts", "format": "in vivo, athymic NCr-nu/nu mice", "settings": "for tumor uptake and retention, times higher than parent drug ^131IUdR: co-injected ^131IUdR", "protocol": "The in vivo properties and pharmacology of several compounds of the present invention were initially tested in athymic mice bearing subcutaneous LS174T tumors (human colorectal adenocarcinoma), which have several desirable properties such as rapid growth when implanted subcutaneously (SQ), good vascularization and the availability of considerable historical data for the parent compound IUdR. The clearance rates from blood, tumor, and associated organs were analyzed to determine the structure-pharmacokinetics relationship. The first compounds studied were 6b-fast and 6b-slow. Four-to-six-weeks old female athymic NCr-nu/nu mice (NCI-Frederic, Md., USA) were allowed to acclimate in Applicants' facility after delivery for no less than 5 days. All protocols involving animals were approved by the University of Nebraska Institutional Animal Care and Use Committee. Mice were housed in microisolator cages with free access to sterilized standard rodent diet and water. LS174T cells in 0.1 mL of serum-free medium were implanted SQ at 5×10^6 cells/mouse. One week later identification transponders were implanted, also SQ. Body weights and tumor sizes were monitored twice weekly, and approximately 10 days after the cell implant, mice were randomized for biodistribution studies.\nEach of the two isomers, 6b-fast and 6b-slow, was tested independently in separate groups of mice. The comparison to the parent compound, IUdR, was made by co-injecting ^131IUdR with a particular ^125I-labeled diastereomer. Compounds were administered intravenously (IV) via a tail vein.\nBiodistribution was conducted at 1 h, 4 h, 24 and 48 h after the administration of radiolabeled compounds (n=6 per time point). The injection doses contained approximately 1 μCi (37 kBq) ^131IUdR and 5 μCi (185 kBq) ^125I-labeled 6b-fast or 6b-slow dissolved in 0.2 mL phosphate buffered saline containing 0.1% bovine serum albumin, pH 7.2 (PBS). All syringes were weighted after loading with the compound solution and immediately after the injection to determine the weight of the injected dose. Triplicate standards of the injected dose were prepared in PBS and counted in a gamma counter just before the beginning of the experiment. The radioactive content of these standards was also determined alongside all tissues after the necropsy to correct the tissue uptake for the decay of the radioisotope. Blood, liver, spleen, heart, lungs, kidneys, brain, tumor and tail were collected during necropsy. Tissues were rinsed in ice-cold saline, patted dry and weighed. The tail was collected to validate the quality of the IV injections.\nFIG. 7 presents whole body images for a typical time course distribution (24 h, 48 h, and 72 h) of 6b administered as a diastereomeric mixture in LS174T-bearing athymic mice. The images were acquired 1, 2, and 3 days after the administration of the compound. […] It is also apparent that based on pharmacokinetics, the use of these compounds can be tailored to a specific malignancy and its anatomical location."}, "IP OVCAR-3 tumors": {"system": "IP OVCAR-3 tumors", "assay": "Pilot therapy of IP OVCAR-3 tumors in athymic mice", "format": "in vivo", "from_the_text": "In pilot therapy experiments, the effects of unmodified ^125IUdR on the growth of IP OVCAR-3 tumors were compared to the therapeutic effects of the 6b diastereomeric mixture and 7b diastereomeric mixture. The tumor model used in this study, OVCAR-3 cell line, was established from the malignant ascites of a patient with progressive adenocarcinoma of the ovary after many types of chemotherapy including cyclophosphamide, adriamycin, and cisplatin. OVCAR-3 is resistant in vitro to clinically relevant concentrations of adriamycin, melphalan, and cisplatin (Hamilton T C, Young R C, Louie K G, Behrens B C, McKoy W M, Grotzinger K R, Ozols R F. Characterization of a xenograft model of human ovarian carcinoma which produces ascites and intraabdominal carcinomatosis in mice. Cancer Res. 1984; 44:5286-90.). In immunodeficient mice, IP injected OVCAR-3 cells produce malignant ascites, peritoneal carcinomatosis, and serosal and visceral seeding that, if left untreated, leads to death from respiratory compromise, hemorrhage from invasion of intra-abdominal blood vessels, and bowel obstruction. Substantial literature data (nearly 100 publications) confirm that this tumor model has pathogenesis and metastatic properties similar to those of human ovarian cancer.\nMice received IP implants of approximately 2.4×10^8 OVCAR-3 cells/mouse isolated from fresh OVCAR-3 mouse ascites. Cell viability was measured before and after injection, and was ≧90%. Four days after tumor cells were implanted, the mice received SQ transponders and were randomized via a lottery into four groups: NT—untreated controls that received IP injection of PBS; 7b group—receiving IP doses of the 7b diastereomeric mixture in PBS (average 0.4 mCi/mouse (14.8 MBq)); 6b group—receiving IP doses of the 6b diastereomeric mixture in PBS (average dose 0.36 mCi/mouse (13.3 MBq)); and ^125IUdR group—receiving IP doses of ^125IUdR (average 0.43 mCi/mouse (15.9 MBq)) in PBS. Mice were monitored three times per week.\nMice in the 6b group received 0.22 mCi (8.1 MBq) 6b diastereomeric mixture on day 27; and on day 28 mice in ^125IUdR group were treated with additional 0.2 mCi (7.4 MBq) ^125IUdR. Slight differences in the dosing schedule and the administered doses are because of the required large quantities of the compounds. For these experiments, ˜20 mCi of no-carrier added and radiochemically pure compounds were required. Each agent was purified on the analytical reversed phase HPLC column. The use of preparative columns in this case is impractical because the products are recovered in large volumes of acetonitrile-containing solvent that must be evaporated to dryness before the use in mice.\nOverall, mice in the 7b group were treated with an average of 0.58 mCi (21.5 MBq) 7b diastereomeric mixture; mice in the 6b group were treated with an average of 0.58 mCi (21.5 MBq) 6b diastereomeric mixture, and mice in the ^125IUdR group were treated with an average of 0.63 mCi (23.3 MBq) ^125IUdR.\nThe therapy was terminated 7 weeks after the first dosing. Mice were sacrificed for the biodistribution study. Blood and solid tumor were taken for the evaluation of their radioactive content. The peritoneal cavity was lavaged with 2-mL aliquots of PBS, and PBS wash and ascites were collected. One mL of the ascites suspension with cancer cells was taken for gamma counting. The rest of the abdominal fluid was centrifuged and 0.5 mL of the supernatant was reserved for gamma counting. The weight of the cell pellet and the supernatant were determined.\nTwo weeks after the first dose of radiolabeled compounds, the whole body radioactivity was measured to determine to what extent the additional doses of the compounds may increase the radiation burden and therefore may be detrimental to the animal health (FIG. 11B). The absolute amounts were low and ranged from […] for the 6b group to […] in the 7b group. […]"}}}
{"smiles": "O=c1[nH]c(=O)n([C@H]2C[C@H](O)[C@@H](COP3(=O)OCc4ccccc4O3)O2)cc1[125I]", "note": "(some centres unmarked) [Compound 6b, 5-[^125I]-Iodo-5′-O-cycloSaligenyl-2′-deoxyuridine Monophosphate]", "values": [{"measurement": "colony formation", "setting": "[1]", "value": "colonies were not formed"}, {"measurement": "tumor uptake and retention, times higher than parent drug ^131IUdR", "setting": "[2]; 24 hours after IV administration", "value": "~14", "unit": "×"}, {"measurement": "tumor uptake and retention, times higher than parent drug ^131IUdR", "setting": "[2]; 48 hours after IV administration", "value": "~7", "unit": "×"}, {"measurement": "clearance of normal organs versus tumor (whole body images)", "setting": "[2]; diastereomeric mixture, images 24 h, 48 h, 72 h after IV administration", "value": "normal organs such as liver clear the compound at a much faster rate than the tumor"}, {"measurement": "whole body retention, median", "setting": "IP OVCAR-3 tumors; after 14 days", "value": 1.89, "unit": "% ID"}, {"measurement": "whole body retention", "setting": "IP OVCAR-3 tumors; after 14 days, value with spread in brackets", "value": "1.87 (0.16) % ID"}, {"measurement": "reduction in solid tumor deposits as compared to ^125IUdR", "setting": "IP OVCAR-3 tumors; diastereomeric mixtures IP, total average 0.58 mCi, 7 weeks after first dose", "value": "~50", "unit": "%"}, {"measurement": "tumor retention compared to ^125IUdR", "setting": "IP OVCAR-3 tumors; necropsy 4 weeks after the boost dose", "value": "significantly higher compared to ^125IUdR"}]}
